The target of data set [1] is β-receptor (Canis lupus familiaris, UniProt P79148). Description: Inhibition of isoprenalin-induced increase in contractile force (dp/dtmax), anaesthetised dogs. It is filed as in vivo, mongrel dogs. The settings on record: for ED50: dog, anaesthetised dogs, isoprenalin 0.5 μg/kg i.v., determined graphically.
Experimental: (§1) The ventricular pressure of mongrel dogs, anesthetized with chloralose-urethane, was determined, together with other circulation parameters, with the aid of a Millar tip catheter (type PC 350 A, Millar Instruments, Houston, Tex.) introduced into the left heart ventricle, and the maximum rate of pressure increase (dp/dtmax) was determined by differentiation (HSE operational amplifier, Hugstetten). This rate serves as a measure of the contractile force.
For data set [2], the target named is T1, β-receptor (Cavia porcellus, UniProt H0W3H1). In words: Inhibition of isoprenalin-induced increase in contractile force, isolated guinea pig left auricle. The note with it: Bath, isoprenalin 3.2×10^-8 molar, probit analysis, read-out: ED50, inhibition of increase in contractile force induced by isoprenaline. Set-up: species or system guinea pig (Pirbright White).
T1 sequence (H0W3H1 1-470): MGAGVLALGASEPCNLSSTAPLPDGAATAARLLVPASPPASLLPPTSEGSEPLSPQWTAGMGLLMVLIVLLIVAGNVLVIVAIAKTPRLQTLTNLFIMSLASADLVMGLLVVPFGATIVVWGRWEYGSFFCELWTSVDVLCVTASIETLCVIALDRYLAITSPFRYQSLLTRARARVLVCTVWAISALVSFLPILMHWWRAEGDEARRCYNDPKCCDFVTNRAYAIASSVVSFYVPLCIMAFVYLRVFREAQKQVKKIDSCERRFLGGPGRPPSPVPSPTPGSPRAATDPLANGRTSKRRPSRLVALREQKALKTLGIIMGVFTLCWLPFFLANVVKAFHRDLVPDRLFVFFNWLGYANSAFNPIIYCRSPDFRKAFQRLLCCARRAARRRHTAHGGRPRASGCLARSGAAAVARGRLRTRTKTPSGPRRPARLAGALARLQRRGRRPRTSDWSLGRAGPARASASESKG

The next data set in a line: in vivo. As for the experimental part:
The acute toxicity was determined on NMRI mice by intravenous or oral administration of increasing doses of the compounds of the invention. The death rates were determined within the 7-day follow-up period and the average lethal dose was determined by probit analysis.

In data set [3] the target is T1, β-receptor. In words: Inhibition of isoprenalin-induced increase in pulse rate, isolated guinea pig right auricle. Set-up: species or system guinea pig (Pirbright White). The settings on record: Bath, isoprenalin 5.8×10^-9 molar, probit analysis, read-out: ED50, inhibition of increase in pulse rate induced by isoprenalin.
Data set [4] has as its system β-receptor. Description: β-receptor blocking action, isolated organs and whole animal (overall statement). The note with it: in words.
Experimental: as §1

The structures appear in SMILES notation. pIC50: −log10 of the molar value. Structures can show the parent of a compound that is named as a salt.

Sequence of β-receptor (Canis lupus familiaris, UniProt P79148) (P79148 whole entry): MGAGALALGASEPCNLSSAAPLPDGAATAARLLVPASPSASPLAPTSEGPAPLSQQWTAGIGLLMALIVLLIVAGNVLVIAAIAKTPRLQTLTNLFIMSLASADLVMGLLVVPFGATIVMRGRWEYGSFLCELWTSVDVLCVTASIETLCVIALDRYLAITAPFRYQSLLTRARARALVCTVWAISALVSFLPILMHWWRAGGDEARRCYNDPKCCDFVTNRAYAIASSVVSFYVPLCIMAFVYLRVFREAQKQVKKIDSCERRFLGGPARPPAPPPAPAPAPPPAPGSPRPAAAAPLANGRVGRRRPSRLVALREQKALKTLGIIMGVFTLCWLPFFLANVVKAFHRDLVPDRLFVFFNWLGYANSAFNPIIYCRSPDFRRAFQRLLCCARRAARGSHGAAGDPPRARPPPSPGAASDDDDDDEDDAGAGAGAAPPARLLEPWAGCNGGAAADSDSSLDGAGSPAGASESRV

Broadly, the ED50 is the dose at which the effect has come halfway, by size or by number of responders. Read a low ED50 as greater potency. For orientation: LD50 means the dose expected to kill half of the subjects tested. A high value points to a less toxic substance. For the molecule `CC(C)(C)NCC(O)COc1ccccc1NC(=O)c1ccco1` (centres unmarked) [Example 1, 2'-(2-hydroxy-3-tert.-butylaminopropoxy)-furan-2-carboxylic acid anilide], the values for the 50% effective dose (ED50) at β-receptor [1] (intraduodenal) and on β-receptor [1] (intravenous) were 0.11 mg/kg and 0.025 mg/kg, respectively. In addition, the “action when administered intraduodenally” value on β-receptor [1] (intraduodenal, in words) is reported as “good action”. For the same molecule, the pIC50 at β-receptor [2] was 6.54; on β-receptor [3], 7.01. Also, the selectivity ratio in “in vivo” (in vivo) is 4560. In addition, in the data set “in vivo” (in words), the toxicity result is on record as “very favorable”. The LD50 at 168 h in the data set “in vivo” (mouse, in vivo, iv) is 55 mg/kg; in “in vivo” (mouse, in vivo, po) it was 502 mg/kg. Further, the “"therapeutic range" quotient (LD50/ED50), times as high as the compounds already known” value in “in vivo” (versus propranolol hydrochloride and practolol hydrochloride) is 1.5-3 times. In addition, in the data set on β-receptor [4], the “β-receptor blocking action / pharmacological activity” value is “strong β-receptor blocking action both on isolated organs and on the whole animal”.
Take `CC(=O)Nc1ccc(OCC(O)CNC(C)C)cc1` (centres unmarked) [Practolol Hydrochloride, reference compound]: on β-receptor [1] (intraduodenal), the 50% effect level (ED50) was put at a dose of 0.9 mg/kg. The pIC50 at β-receptor [2] was 5.64; at β-receptor [3], 6.15. For the same molecule, in the data set “in vivo” (in vivo), the selectivity ratio is 3190. Also, the “LD50, acute toxicity” value in “in vivo” (mouse, in vivo, iv, 168 h) was 148 mg/kg. For the same molecule, in “in vivo” (mouse, in vivo, po), the median lethal dose (LD50) at 168 h was determined as 2870 mg/kg.

Values taken from patent US4269855A, “(3-Alkylamino-2-hydroxypropoxy)-furan-2-carboxylic acid anilides and physiologically tolerated acid addition salts thereof and medicaments containing them” (A. Nattermann & Cie. GmbH, priority 1979, dated 1981).
